Data set [1] is described as follows: 3D cell viability assay (MTS, collagen). Type of data set: cell-based, mouse. The note with it: mouse, replicates. The method, then: The 3D cell viability assays were performed using cells embedded into polymerized collagen at 2.5 mg ml^−1. KPC CAFs and CCs were seeded at 10,000 cells per well in a 96-well plate. MTS solution (Promega) was added to the cells at a 1:20 dilution and cells were incubated at 37 °C for 1.5 h. Cell proliferation rates were measured by detecting the absorbance at 490 nm using a microplate reader and three biological repeats were performed.
Data presented as mean values +/− SD. f. […] Data presented as mean values +/− SD. […] Data presented as mean values +/− SD. […] Data presented as mean values +/− SD. Ordinary one-way ANOVA for multiple comparison test performed. Source data

A further data set relates to F4/80. Nature of the data set: Immunohistochemistry of end-point KPC tumors: macrophage infiltration. Type of data set: in vivo, mouse. The note with it: KPC tumours at endpoint; individual replicate values (Extended Data 6G). The method, then:
(§1) All tissues or matrices, including patient TMAs, were fixed in 10% buffered formalin and embedded in paraffin. The 4-μm sections of samples were deparaffinized with xylene and rehydrated in graded ethanol washes. For immunohistochemistry, Bond Dewax Solution (AR9222) was used. Antigen retrieval was performed using Bond RX H2(30) protocol: HIER 30 min ER1 (citrate pH 6) OR ER2 (EDTA pH 9) at 100 °C. Slides were quenched in BOND Polymer Refine Detection (Leica Biosystems DS9800). […] Slides were digitized on an Aperio slide scanner and representative areas per tumor acquired and analyzed by researchers blinded to the conditions of the experiment.
(§2) Extended Data Fig. 6 PXS-5505 in combination with gemcitabine in a KPC model. a. Quantification of proliferating cells (Ki67 positive nuclear staining) in KPC tumors at end point, treated as indicated. 5 fields of view (500 μm × 500 μm) per mouse and 10 mice per cohort were scored. […] Quantification of percent coverage of αSMA positive staining in KPC tumors at end point, treated as indicated. 3 fields of view (1000 μm × 1000 μm) per mouse and 10 mice per cohort were scored. […] Quantification of percent coverage of PDGFR-ß positive staining in KPC tumors at end point, treated as indicated. 3 fields of view (1000 μm × 1000 μm) per mouse and 10 mice per cohort were scored. […] 3 fields of view (500 μm × 500 μm) per mouse and 10 mice per cohort were scored. […]

For another data set, the system named is MPO. Nature of the data set: Immunohistochemistry of end-point KPC tumors: myeloperoxidase cell infiltration. Type of data set: in vivo, mouse. The note with it: KPC tumours at endpoint; individual replicate values (Extended Data 6H). As to the method: as §1, §2

“And” between values parts separate entries of the source, which are not always exact repeats. Identical values can stand only once.

For the molecule `Cl.Cl.NC/C=C(\F)CS(=O)(=O)c1cccc2cccnc12.O` [PXS-5505, (Z)-3-fluoro-4-(quinolin-8-ylsulfonyl)but-2-en-1-amine dihydrochloride monohydrate], the viability (usually a read-out of living cells in per cent, often relative to untreated cells) in data set [1] (KPC CAFs embedded in polymerized collagen (3D), PXS-5505 3 (unit inferred)) was 97.2%; in data set [1] (KPC CAFs embedded in polymerized collagen (3D), PXS-5505 30 (unit inferred)) it was 87.5%; in data set [1] (KPC CAFs embedded in polymerized collagen (3D), PXS-5505 100 (unit inferred)) it was 99%; in data set [1] (KPC cancer cells (CCs) embedded in polymerized collagen (3D), KPC CC, PXS-5505 0.3 (unit inferred)), 97.5%; in data set [1] (KPC cancer cells (CCs) embedded in polymerized collagen (3D), KPC CC, PXS-5505 3 (unit inferred)), 108%; in data set [1] (KPC cancer cells (CCs) embedded in polymerized collagen (3D), KPC CC, PXS-5505 30 (unit inferred)), 100%. For the same molecule, in data set [1] (KPC cancer cells (CCs) embedded in polymerized collagen (3D), KPC CC, PXS-5505 100 (unit inferred)), the viability was 96.7%. Also, the “macrophage infiltration (F4/80 positive staining)” value in the data set on F4/80 is 5 and 7. Also, the “number of myeloperoxidase (MPO+) cell infiltration” value in the data set with MPO came out at 11.
